The nature of data set [1]: Solubility studies of fulvestrant in solvents, co-solvents, oils and release rate modifiers. In kind it is physicochemical. Particulars: for solubility: read-out: Fulvestrant solubility achieved. On the procedure:
Solubility studies of fulvestrant were performed using various combinations of solvent, co-solvents, oils and release rate modifiers. The resultant data are shown herein below Table 1.

For data set [2] the following is noted: diethylene glycol monoethyl ether as the sole solvent, reported by Patel; cited from earlier work.

Values after ≈ are worked out from the molar mass of the structure shown. Where two headings read alike, the source gives them in different places.

The values below come from patent US20180289721A1, “FULVESTRANT COMPOSITIONS” (THEMIS MEDICARE LIMITED, priority 2015, published 2018).

One may read the solubility as the dissolved amount per volume that the medium holds. As to `C[C@]12CC[C@@H]3c4ccc(O)cc4C[C@@H](CCCCCCCCC[S+]([O-])CCCC(F)(F)C(F)(F)F)[C@H]3[C@@H]1CC[C@@H]2O` (stereo partly drawn) [Fulvestrant, 7-alpha-[9-[(4,4,5,5,5-pentafluoropentyl)sulfinyl]nonyl]estra-1,3,5(10)-triene-3,17-beta-diol], the Fulvestrant solubility achieved in data set [1] (Benzyl alcohol (4 v/v %):Diethylene glycol monoethyl ether (q.s. to 1.7 mL)) is given as 300 mg/1.7 mL; in data set [1] (Benzyl alcohol (5 v/v %):Diethylene glycol monoethyl ether (q.s. to 3.3 mL)) it was 500 mg/3.3 mL. In addition, the solubility amounted to 250 mg/mL in data set [1] (N-methyl pyrrolidone, organic solvent or mixture, N-methyl Pyrolidone); 11.1 mg/mL in data set [1] (Polyethylene Glycol 400, organic solvent or mixture, Polyethylene Glycol 400); 30.8 mg/mL in data set [1] (TCLS-101 (DMI), organic solvent or mixture, TCLS-101 (DMI)); 56 mg/mL in data set [1] (oil or lipid, Benzyl alcohol (4 v/v %):Benzyl benzoate (10 w/v %):Castor oil (50 v/v %):Diethylene glycol monoethyl ether (q.s. to 1 mL)); 30 mg/mL in data set [1] (oil or lipid, Benzyl alcohol (4 v/v %):Diethylene glycol monoethyl ether (31 v/v %):Castor oil (q.s. to 1 mL)); 125 mg/mL in data set [1] (oil or lipid, Benzyl alcohol (4 v/v %):Diethylene glycol monoethyl ether (46 v/v %):Castor oil (q.s. to 1 mL)). For the same compound, the solubility in data set [1] (oil or lipid, Benzyl alcohol (10 v/v %):Castor oil (50 v/v %):Diethylene glycol monoethyl ether (q.s. to 1 mL)) is 151 mg/mL; in data set [1] (organic solvent or mixture, Benzyl alcohol (2 v/v %):Diethylene glycol monoethyl ether (q.s. to 1 mL)) it was 200 mg/mL; in data set [1] (organic solvent or mixture, Benzyl alcohol (2 v/v %):MCT oil (1 v/v %):Diethylene glycol monoethyl ether (q.s. to 1 mL)), 200 mg/mL; in data set [1] (organic solvent or mixture, Benzyl alcohol (4 v/v %):Diethylene glycol monoethyl ether (q.s. to 1.7 mL)), 176 mg/mL; in data set [1] (organic solvent or mixture, Benzyl alcohol (5 v/v %):Diethylene glycol monoethyl ether (q.s. to 3.3 mL)) it was 151 mg/mL; in data set [2] it was 58.80 mg/mL (≈ 96.9 mM).
